Laboratory results as given in the Kinase Knowledgebase extract (Sharma et al. 2016).
In brackets after ≈: the same amount, converted by molar mass.

target: EGFR (UniProt P00533)
Sequence (P00533 whole entry, looked up): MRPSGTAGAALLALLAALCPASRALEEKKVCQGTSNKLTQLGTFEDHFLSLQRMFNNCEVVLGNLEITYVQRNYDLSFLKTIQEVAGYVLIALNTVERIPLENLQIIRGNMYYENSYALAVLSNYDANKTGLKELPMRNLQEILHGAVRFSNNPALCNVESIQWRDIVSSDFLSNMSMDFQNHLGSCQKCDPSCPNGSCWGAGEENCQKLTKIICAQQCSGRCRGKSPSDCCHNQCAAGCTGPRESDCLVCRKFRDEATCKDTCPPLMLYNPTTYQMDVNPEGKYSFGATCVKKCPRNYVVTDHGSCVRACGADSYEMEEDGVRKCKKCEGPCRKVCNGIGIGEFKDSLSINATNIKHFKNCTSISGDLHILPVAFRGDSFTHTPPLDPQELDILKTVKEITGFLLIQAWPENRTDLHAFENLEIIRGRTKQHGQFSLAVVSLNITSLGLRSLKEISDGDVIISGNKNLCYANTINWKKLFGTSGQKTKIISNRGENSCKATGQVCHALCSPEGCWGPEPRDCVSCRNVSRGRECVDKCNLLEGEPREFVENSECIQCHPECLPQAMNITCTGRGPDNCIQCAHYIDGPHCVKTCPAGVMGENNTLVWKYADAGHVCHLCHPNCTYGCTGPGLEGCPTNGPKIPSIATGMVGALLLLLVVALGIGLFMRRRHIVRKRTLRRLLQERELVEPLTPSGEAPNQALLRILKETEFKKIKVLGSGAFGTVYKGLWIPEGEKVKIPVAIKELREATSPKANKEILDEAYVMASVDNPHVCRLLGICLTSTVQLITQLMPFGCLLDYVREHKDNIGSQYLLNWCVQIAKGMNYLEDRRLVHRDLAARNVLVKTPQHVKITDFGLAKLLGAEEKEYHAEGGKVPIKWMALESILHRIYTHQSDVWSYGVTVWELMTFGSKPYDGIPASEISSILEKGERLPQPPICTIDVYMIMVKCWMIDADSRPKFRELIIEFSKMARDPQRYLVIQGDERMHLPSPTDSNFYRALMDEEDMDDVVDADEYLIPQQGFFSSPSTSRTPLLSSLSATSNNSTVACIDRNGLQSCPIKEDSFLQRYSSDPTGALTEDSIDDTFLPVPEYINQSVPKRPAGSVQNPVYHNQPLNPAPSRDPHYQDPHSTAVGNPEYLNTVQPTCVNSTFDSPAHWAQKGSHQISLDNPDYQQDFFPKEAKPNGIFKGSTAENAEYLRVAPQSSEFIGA

With `COc1cc(Nc2ncnc(-n3c(NCc4ccc(Cl)cc4)nc4ccccc43)n2)cc(OC)c1OC` as the compound, how does the IC50 read?
The IC50 was > 4.5 µg/mL.

With `COc1cc(Nc2ncnc(Nc3cc(-c4cccc(C(F)(F)F)c4)n[nH]3)n2)cc(OC)c1OC` as the compound, how does the IC50 read?
The IC50 was 2.4 to 3.5 µg/mL (≈ 4.92 to 7.18 µM).

`COc1cc(Nc2ncnc(Nc3cccc(OCc4ccccc4)c3)n2)cc(OC)c1OC` was tested. Which IC50 did it give?
The IC50 was > 4.5 µg/mL.

How did the IC50 turn out when `COc1cc(Nc2ncnc(N3CCOCC3)n2)cc(OC)c1OC` was run?
Its IC50 is > 4.5 µg/mL.

Which IC50 does the source give for `COc1cc(Nc2ncnc(-n3ccc4ccc(F)cc43)n2)cc(OC)c1OC` here?
Its IC50 is > 4.5 µg/mL.

With `COc1cc(Nc2ncnc(Nc3ccc(C)cc3)n2)cc(OC)c1OC` as the compound, how does the IC50 read?
Its IC50 is < 0.4 µg/mL.

Which IC50 does the source give for `COc1ccc(Nc2ncnc(-n3c(N)nc4ccccc43)n2)cc1O` here?
Its IC50 is 2.4 to 3.5 µg/mL (≈ 6.87 to 10 µM).

With `COc1cc(C)c(Nc2ncnc(Nc3cc(-c4ccccc4)n[nH]3)n2)cc1OC` as the compound, how does the IC50 read?
The IC50 was 0.4 to 2.4 µg/mL (≈ 0.991 to 5.95 µM).

With `COc1ccc(Nc2ncnc(Nc3ccc4[nH]ccc4c3)n2)cc1OC` as the compound, how does the IC50 read?
Its IC50 is < 0.4 µg/mL.

With `CN(c1cccc(Cl)c1)c1ncnc(Cl)n1` as the compound, how does the IC50 read?
The IC50 was > 4.5 µg/mL.

Which IC50 does the source give for `COc1ccc(Nc2ncnc(N(C)c3ccc(Cl)cc3)n2)cc1OC` here?
The IC50 was < 0.4 µg/mL.

`COC(=O)c1ccc(-c2cc(Nc3ncnc(Nc4cccc5ncccc45)n3)[nH]n2)cc1` was tested. Which IC50 did it give?
Its IC50 is > 4.5 µg/mL.

`Nc1ncnc(Nc2cccc(Cl)c2)n1` was tested. Which IC50 did it give?
Its IC50 is > 4.5 µg/mL.

For `COc1ccc2c(c1)nc(NCc1ccccc1)n2-c1ncnc(Nc2cc(OC)c(OC)c(OC)c2)n1.COc1ccc2nc(NCc3ccccc3)n(-c3ncnc(Nc4cc(OC)c(OC)c(OC)c4)n3)c2c1`, which IC50 is on record?
Its IC50 is 0.4 to 2.4 µg/mL.

How did the IC50 turn out when `COc1cc(Nc2ncnc(-c3cccnc3Nc3ccccc3C)n2)cc(OC)c1OC` was run?
The IC50 was > 4.5 µg/mL.

How did the IC50 turn out when `Cc1ccc2c(c1)CCCN2c1ncnc(NCCCn2ccnc2)n1` was run?
The IC50 was > 4.5 µg/mL.

For `O=C(Nc1ccc(Nc2ncnc(-n3c(=O)[nH]c4ccccc43)n2)cc1)O[C@@H]1CCOC1`, which IC50 is on record?
Its IC50 is > 4.5 µg/mL.

With `CN(c1cccc(Cl)c1)c1ncnc(Nc2ccccc2)n1` as the compound, how does the IC50 read?
Its IC50 is < 0.4 µg/mL.

`COc1ccc(CNc2nc3ccccc3n2-c2ncnc(Nc3cccc(Cc4nnn[nH]4)c3)n2)cc1` was tested. Which IC50 did it give?
The IC50 was 0.4 to 2.4 µg/mL (≈ 0.791 to 4.75 µM).

How did the IC50 turn out when `COc1cc(Nc2ncnc(-n3c(NCc4ccccn4)nc4ccccc43)n2)cc(OC)c1OCCN1CCOCC1` was run?
The IC50 was > 4.5 µg/mL.

`O=c1[nH]c2ccccc2n1-c1ncnc(Nc2ccc(F)c(Cl)c2)n1` was tested. Which IC50 did it give?
The IC50 was > 4.5 µg/mL.

With `NC(=O)c1cccc(Nc2ncnc(Nc3cc(-c4ccco4)n[nH]3)n2)c1` as the compound, how does the IC50 read?
Its IC50 is < 0.4 µg/mL.

`Cc1cccc(Nc2ncnc(-n3cccc3)n2)c1C` was tested. Which IC50 did it give?
Its IC50 is > 4.5 µg/mL.

Which IC50 does the source give for `COc1cc(Nc2ncnc(N3CCc4cc([N+](=O)[O-])ccc43)n2)cc(OC)c1OC` here?
The IC50 was > 4.5 µg/mL.

How did the IC50 turn out when `CCN(CC)CCN(C)c1ncnc(Nc2ccc(OC)c(OC)c2)n1` was run?
Its IC50 is > 4.5 µg/mL.

How did the IC50 turn out when `NC(=O)[C@H](CO)Nc1ncnc(-n2c(=O)[nH]c3ccccc32)n1` was run?
Its IC50 is > 4.5 µg/mL.

`COc1cc(Nc2ncnc(-n3c(N)nc4ccccc43)n2)cc(OC)c1OC` was tested. Which IC50 did it give?
Its IC50 is > 4.5 µg/mL.

Which IC50 does the source give for `O=C(O)/C=C/c1ccc(Nc2ncnc(Nc3cc(-c4ccco4)[nH]n3)n2)cc1` here?
Its IC50 is < 0.4 µg/mL.

For `COCCOc1ccc(Nc2ncnc(Nc3ccc(C)c(O)c3)n2)cc1OC`, which IC50 is on record?
The IC50 was < 0.4 µg/mL.

With `COc1ccc(CNc2nc3cc(OC)ccc3n2-c2ncnc(Nc3cc(OC)c(OC)c(OC)c3)n2)cc1.COc1ccc(CNc2nc3ccc(OC)cc3n2-c2ncnc(Nc3cc(OC)c(OC)c(OC)c3)n2)cc1` as the compound, how does the IC50 read?
The IC50 was > 4.5 µg/mL.

For `COc1cc(Nc2ncnc(Nc3cccc4ccccc34)n2)cc(OC)c1OCCN1CCOCC1`, which IC50 is on record?
The IC50 was < 0.4 µg/mL.

How did the IC50 turn out when `O=C(O)Cc1cccc(Nc2ncnc(-n3c(NCc4ccccn4)nc4ccccc43)n2)c1` was run?
Its IC50 is > 4.5 µg/mL.

How did the IC50 turn out when `Nc1ncnc(-n2c(N)nc3ccccc32)n1` was run?
The IC50 was > 4.5 µg/mL.

How did the IC50 turn out when `COc1ccc(Nc2ncnc(Nc3ccc4c(c3)C(=O)OC4)n2)cc1OC` was run?
The IC50 was 2.4 to 3.5 µg/mL (≈ 6.33 to 9.23 µM).

Which IC50 does the source give for `c1ccc(Cn2ncc3cc(Nc4ncnc(NCC5CCCCC5)n4)ccc32)cc1` here?
Its IC50 is > 4.5 µg/mL.

For `COc1cc(Nc2ncnc(-n3c(NCc4cccnc4)nc4ccccc43)n2)cc(OC)c1OC`, which IC50 is on record?
Its IC50 is > 4.5 µg/mL.

`COc1ccc(Nc2ncnc(Nc3cc(OC)c(OC)c(OC)c3)n2)cc1OCCN1CCOCC1` was tested. Which IC50 did it give?
The IC50 was 3.5 to 4.5 µg/mL (≈ 6.83 to 8.78 µM).

Which IC50 does the source give for `Fc1ccc(CNc2ncnc(Nc3cc(-c4ccco4)n[nH]3)n2)cc1` here?
Its IC50 is 3.5 to 4.5 µg/mL (≈ 9.96 to 12.8 µM).

Which IC50 does the source give for `COc1cc(Nc2ncnc(Nc3ccc(F)cc3)n2)cc(OC)c1OC` here?
Its IC50 is 0.4 to 2.4 µg/mL (≈ 1.08 to 6.46 µM).

How did the IC50 turn out when `COc1cc(Nc2ncnc(N(c3ccc(Cl)cc3)c3nc4ccccc4[nH]3)n2)cc(OC)c1OC` was run?
The IC50 was < 0.4 µg/mL.

How did the IC50 turn out when `COc1ccc(Nc2ncnc(Nc3ccc4c(c3)C(=O)N(C)C4=O)n2)cc1OC` was run?
The IC50 was > 4.5 µg/mL.

With `COc1ccc(CNc2ncccc2-c2ncnc(Nc3cc(OC)c(OC)c(OC)c3)n2)cc1` as the compound, how does the IC50 read?
The IC50 was > 4.5 µg/mL.

For `COc1cc(Nc2ncnc(Nc3cc(-c4ccco4)n[nH]3)n2)cc(OC)c1OC`, which IC50 is on record?
Its IC50 is < 0.4 µg/mL.

Which IC50 does the source give for `Cc1ccc2c(c1)CCCN2c1ncnc(NCCc2cccnc2)n1` here?
The IC50 was > 4.5 µg/mL.

For `COc1cc(Nc2ncnc(-n3c(NCc4ccc(Cl)cc4C)nc4ccccc43)n2)cc(OC)c1OC`, which IC50 is on record?
The IC50 was 3.5 to 4.5 µg/mL (≈ 6.58 to 8.46 µM).

For `COc1ccc(CCNc2ncnc(Nc3cc(-c4ccco4)[nH]n3)n2)cc1OC`, which IC50 is on record?
The IC50 was > 4.5 µg/mL.

`NC(=O)c1ccc(Nc2ncnc(-c3cccs3)n2)cc1` was tested. Which IC50 did it give?
Its IC50 is > 4.5 µg/mL.

How did the IC50 turn out when `COC(=O)c1ccc(-c2cc(Nc3ncnc(NCCc4c[nH]c5ccccc45)n3)[nH]n2)cc1` was run?
Its IC50 is 0.4 to 2.4 µg/mL (≈ 0.88 to 5.28 µM).

How did the IC50 turn out when `COc1cc(Nc2ncnc(-n3c(NCCO)nc4ccccc43)n2)cc(OC)c1OC` was run?
Its IC50 is > 4.5 µg/mL.

Which IC50 does the source give for `COc1cc(Nc2ncnc(-n3c(NCCc4ccncc4)nc4ccccc43)n2)cc(OC)c1OC` here?
Its IC50 is > 4.5 µg/mL.

For `COc1cc(Nc2ncnc(-n3c(NC(C)c4ccc(F)cc4)nc4ccccc43)n2)cc(OC)c1OC` (stereo not drawn), which IC50 is on record?
The IC50 was > 4.5 µg/mL.

Which IC50 does the source give for `COc1ccc(N(C)c2ncnc(-n3c(N)nc4ccccc43)n2)cc1` here?
The IC50 was > 4.5 µg/mL.

How did the IC50 turn out when `Nc1ncnc(Nc2ccc(C3CCCCC3)cc2)n1` was run?
Its IC50 is > 4.5 µg/mL.
